Results from ChEMBL document CHEMBL5550130, “Discovery of harmiprims, harmine-primaquine hybrids, as potent and selective anticancer and antimalarial compounds” (Bioorg Med Chem, 2024).
Activity calls are given as the source filed them. No cut-off for these calls is given here.

Key:
[1] = tested on: SW-620; assay: Antiproliferative activity against human SW620 cells assessed as reduction in cell viability incubated for 72 hrs by MTT assay; format: functional, cell-based; details: SW-620, 72 h
[2] = tested on: HepG2; assay: Antiproliferative activity against human HepG2 cells assessed as reduction in cell viability incubated for 72 hrs by MTT assay; format: functional, cell-based; details: HepG2, 72 h
[3] = tested on: HCT-116; assay: Antiproliferative activity against human HCT-116 cells assessed as reduction in cell viability incubated for 72 hrs by MTT assay; format: functional, cell-based; details: HCT-116, 72 h
[4] = tested on: MCF7; assay: Antiproliferative activity against human MCF7 cells assessed as reduction in cell viability incubated for 72 hrs by MTT assay; format: functional, cell-based; details: MCF7, 72 h
[5] = Antiproliferative activity against human HEK293T cells assessed as reduction in cell viability incubated for 72 hrs by MTT assay; format: toxicity, cell-based, HEK-293T
[6] = Selectivity index, ratio of IC50 for antiproliferative activity against human HEK293T cells to IC50 for antiproliferative activity against human MCF7 cells; format: toxicity, cell-based; details: HEK293T cells versus MCF7 cells, read-out: Ratio IC50
[7] = tested on: Calf thymus DNA; assay: Binding affinity to calf thymus DNA assessed as binding constant by UV-Visible absorption spectroscopic analysis; details: Bos taurus
[8] = tested on: RNA; assay: Binding affinity to double stranded RNA (unknown origin) assessed as binding constant by UV-Visible absorption spectroscopic analysis; format: nucleic-acid assay
[9] = tested on: Plasmodium falciparum; assay: Antiplasmodial activity against erythrocytic stage of chloroquine-sensitive Plasmodium falciparum 3D7 assessed as inhibition of parasite growth incubated for 3 days by HRP2-ELISA; format: functional, organism-based; details: 3D7, 72 h
[10] = tested on: Plasmodium falciparum; assay: Antiplasmodial activity against erythrocytic stage of chloroquine-resistant Plasmodium falciparum Dd2 assessed as inhibition of parasite growth incubated for 3 days by HRP2-ELISA; format: functional, organism-based; details: Dd2, 72 h
[11] = tested on: Calf thymus DNA; assay: Binding affinity to calf thymus DNA assessed as thermal stabilization by thermal denaturation based UV-Visible absorption spectroscopic analysis; details: Bos taurus
[12] = tested on: Plasmodium falciparum; assay: Resistance index, ratio of IC50 for antiplasmodial activity against erythrocytic stage of chloroquine-resistant Plasmodium falciparum Dd2 to IC50 for antiplasmodial activity against erythrocytic stage of chloroquine-sensitive Plasmodium falciparum 3D7; format: functional
[13] = tested on: RNA; assay: Binding affinity to double stranded RNA (unknown origin) assessed as thermal stabilization by thermal denaturation based UV-Visible absorption spectroscopic analysis; format: nucleic-acid assay
[14] = tested on: dsDNA; assay: Binding affinity to double stranded DNA (unknown origin) by CD spectroscopic analysis; format: nucleic-acid assay
[15] = tested on: RNA; assay: Binding affinity to double stranded RNA (unknown origin) by CD spectroscopic analysis; format: nucleic-acid assay
[16] = Drug uptake in human MCF7 cells at 10 uM incubated for 30 mins by fluorescence microscopic analysis; format: ADME, cell-based; details: mcf7, 0.5 h
[17] = tested on: dsDNA; assay: Binding affinity to double stranded DNA (unknown origin) assessed as increase in fluorescence intensity by fluorescence quenching analysis; format: nucleic-acid assay
[18] = tested on: RNA; assay: Binding affinity to double stranded RNA (unknown origin) assessed as increase in fluorescence intensity by fluorescence quenching analysis; format: nucleic-acid assay
[19] = Selectivity index, ratio of IC50 for antiproliferative activity against human HEK293T cells to IC50 for antiplasmodial activity against erythrocytic stage of chloroquine-sensitive Plasmodium falciparum 3D7; format: toxicity, cell-based; details: read-out: Ratio IC50
[20] = Drug uptake in human MCF7 cells at 10 uM incubated for 1 hr by fluorescence microscopic analysis; format: ADME, cell-based; details: mcf7, 1 h
[21] = tested on: Plasmodium berghei; assay: Antiplasmodial activity against hepatic stage of Plasmodium berghei sporozoites infected in human Huh-7 cells assessed as reduction in parasite growth at 1 uM incubated for 1 hr by bioluminescence assay; format: functional, organism-based
[22] = tested on: Plasmodium berghei; assay: Antiplasmodial activity against hepatic stage of Plasmodium berghei sporozoites infected in human Huh-7 cells assessed as reduction in parasite growth at 10 uM incubated for 1 hr by bioluminescence assay; format: functional, organism-based
[23] = tested on: Plasmodium berghei; assay: Antiplasmodial activity against hepatic stage of Plasmodium berghei sporozoites infected in human Huh-7 cells assessed as inhibition of parasite growth incubated for 1 hr by bioluminescence assay; format: functional, organism-based; details: Huh-7, 1 h
[24] = tested on: Huh-7; assay: Cytotoxicity against human Huh-7 cells infected with Plasmodium berghei sporozoites at 1 uM by alamar blue staining based assay; format: functional, cell-based
[25] = tested on: Huh-7; assay: Cytotoxicity against human Huh-7 cells infected with Plasmodium berghei sporozoites at 10 uM by alamar blue staining based assay; format: functional, cell-based
[26] = tested on: Plasmodium falciparum; assay: Gametocytocidal activity against gametocytes of Plasmodium falciparum NF54 assessed as inhibition of ATP production measured after 48 hrs by Bac-TiterGlo analysis; format: functional, organism-based; details: NF54, 48 h
[27] = tested on: MCF7; assay: Induction of cell cycle arrest in human MCF7 cells assessed as increase in accumulation of cells at G1 phase at 4.5 uM measured upto 48 hrs by propidium iodide/RNAse A staining based cell sorter analysis; format: functional
[28] = tested on: MCF7; assay: Induction of cell cycle arrest in human MCF7 cells assessed as increase in accumulation of cells at G2/M phase at 4.5 uM measured upto 48 hrs by propidium iodide/RNAse A staining based cell sorter analysis; format: functional
[29] = Drug uptake in human MCF7 cells at 1 uM incubated for 30 mins by Mitotracker Deep Red staining confocal microscopic analysis; format: ADME, cell-based; details: mcf7, 0.5 h
[30] = tested on: MCF7; assay: Induction of cell cycle arrest in human MCF7 cells assessed as increase in accumulation of cells at G1 phase at 0.75 uM measured after 24 hrs by propidium iodide/RNAse A staining based cell sorter analysis; format: functional
[31] = tested on: MCF7; assay: Induction of cell cycle arrest in human MCF7 cells assessed as decrease in accumulation of cells at S phase at 0.75 uM measured after 24 hrs by propidium iodide/RNAse A staining based cell sorter analysis; format: functional
[32] = tested on: MCF7; assay: Induction of cell cycle arrest in human MCF7 cells assessed as increase in accumulation of cells at G1 phase at 0.75 uM measured after 48 hrs by propidium iodide/RNAse A staining based cell sorter analysis; format: functional
[33] = tested on: MCF7; assay: Induction of cell cycle arrest in human MCF7 cells assessed as increase in accumulation of cells at G2/M phase at 0.75 uM measured upto 48 hrs by propidium iodide/RNAse A staining based cell sorter analysis; format: functional

Row | Compound | IC50 [1] [µM] | IC50 [2] [µM] | IC50 [3] [µM] | IC50 [4] [µM] | IC50 at 72 h [5] [µM] | selectivity ratio [6] | IC50 [9] [µM] | IC50 [10] [µM] | Ratio IC50 [12] | selectivity ratio [19] | other results
1 | COc1cc(NC(C)CCCn2cc(COc3ccc4[nH]c5c(C)nccc5c4c3)nn2)c2ncccc2c1 (stereo unspecified) | 8.94 | 6.67 | 18.2 | 9.45 | 25.2 | 2.67 | 0.425 | 0.895 | 2.11 |  | log Ks [7]: 3.4; log Ks [8]: 3.4; Activity [11]: inactive; Activity [13]: inactive; Activity [14]: inactive; Activity [15]: inactive; Drug uptake [16]: Active; Activity [17]: inactive; Activity [18]: inactive
2 | COc1cc(NC(C)CCCNC(=O)NCc2cc3c([nH]c4ccccc43)c(C)n2)c2ncccc2c1 (stereo unspecified) | 25 | > 50 | 27.2 | 11.7 | > 50 | > 4.29 | 2.4 | 2.35 | 0.98 | > 20.8 | 
3 | COc1cc(NC(C)CCCn2cc(COc3ccc4[nH]c5c(C)nccc5c4c3)nn2)c2ncccc2c1-c1c(OC)cc(NC(C)CCCn2cc(COc3ccc4[nH]c5c(C)nccc5c4c3)nn2)c2ncccc12 (stereo unspecified) | > 50 | > 50 | > 50 | > 100 | > 50 |  | 0.0154 | 0.0172 | 1.12 | > 3250 | log Ks [7]: 5.8; Activity [11]: inactive; Activity [13]: inactive; Activity [14]: inactive; Activity [15]: inactive; Drug uptake [20]: Not Active; Activity [21]: Active; Activity [22]: Active; IC50 [23]: 0.036 µM; Activity [24]: inactive; Activity [25]: inactive; IC50 [26]: 0.0905 µM; Activity [17]: Active; Activity [18]: Active
4 | COc1cc(NC(C)CCCn2cc(Cn3c4cc(OC)ccc4c4ccnc(C)c43)nn2)c2ncccc2c1 (stereo unspecified) | > 50 | > 50 | 23.2 | 8.93 | > 50 | > 5.6 | 0.523 | 0.906 | 1.73 | > 95.5 | log Ks [7]: 5.5; log Ks [8]: 4.6; Activity [11]: inactive; Activity [13]: inactive; Activity [14]: inactive; Activity [15]: inactive; Drug uptake [16]: Active; Activity [27]: Active; Activity [28]: inactive; Activity [21]: Active; Activity [22]: Active; IC50 [23]: 1.46 µM; Activity [17]: Active; Activity [18]: Active
5 | COc1cc(NC(C)CCCNC(=O)NCc2nccc3c2[nH]c2ccccc23)c2ncccc2c1 (stereo unspecified) | 2.48 | 0.69 | 0.94 | 1.43 | 0.68 | < 0.48 | 4.7 | 6.13 | 1.31 | 0.1 | log Ks [7]: 5.5; log Ks [8]: 4.2; Activity [11]: inactive; Activity [13]: inactive; Activity [14]: inactive; Activity [15]: inactive; Drug uptake [29]: Not Active; Activity [30]: Active; Activity [31]: Active; Activity [32]: Active; Activity [33]: inactive; Activity [21]: Active; Activity [22]: Active; Activity [24]: Active; Activity [25]: Active; Activity [17]: Active; Activity [18]: Active
6 | COc1cc(NC(C)CCCn2cc(-c3cc4c([nH]c5ccccc54)c(C)n3)nn2)c2ncccc2c1 (stereo unspecified) | 15.8 | > 50 | 18.3 | 14.5 | > 50 | > 3.46 | 0.857 | 0.632 | 0.74 | > 58.3 | 
7 | COc1cc(NC(C)CCCn2cc(-c3nccc4c3[nH]c3ccccc34)nn2)c2ncccc2c1 (stereo unspecified) | 14.1 | > 50 | 10.2 | > 50 | 25.3 | < 0.51 | 2.52 | 4.48 | 1.77 | 10 | 
8 | CN(C)c1ccc2nc3ccc(N(C)C)cc3[s+]c2c1 [METHYLENE BLUE ANHYDROUS] |  |  |  |  |  |  |  |  |  |  | IC50 [26]: 0.506 µM
9 | COc1cc(NC(C)CCCNC(=O)NCCOc2ccc3c(c2)[nH]c2c(C)nccc23)c2ncccc2c1 (stereo unspecified) | 7.59 | 7.97 | 7.71 | 8.87 | 7.63 | 0.86 | 6.77 | 8.07 | 1.2 | 1.1 | 
10 | O=c1[nH]cc(F)c(=O)[nH]1 [FLUOROURACIL] |  | 5.46 | 14.4 | 23.9 | 17.6 | 0.74 |  |  |  |  | 
11 | COc1ccc2c(c1)[nH]c1c(C)nccc12 [HARMINE] | 7.32 | 14.9 | 7.64 |  | 21 | 1.55 |  | > 27.7 | >3.36 | 2.5 | 
12 | COc1cc(NC(C)CCCN)c2ncccc2c1 (stereo unspecified) [PRIMAQUINE] | 9.2 |  | 20.8 | 26.6 | 37.6 | 1.42 | 4.87 | 5.45 | 1.12 | 7.7 | 
13 | COc1cc(NC(C)CCCNC(=O)NCCn2c3cc(OC)ccc3c3ccnc(C)c32)c2ncccc2c1 (stereo unspecified) | 9.93 | 12.3 | 10.6 | 9.15 | 12.7 | 1.39 | 0.702 | 1.1 | 1.57 | 18.1 | 
14 | COc1cc(NC(C)CCCNC(=O)NCCOc2ccc3[nH]c4c(C)nccc4c3c2)c2ncccc2c1 (stereo unspecified) | 10.6 | 10.9 | 7.79 | 14.2 | 12 | 0.84 | 10.7 | 8.84 | 0.83 | 1.1 | 
15 | COc1cc(NC(C)CCCn2cc(COc3ccc4c(c3)[nH]c3c(C)nccc34)nn2)c2ncccc2c1 (stereo unspecified) | 6.99 | 7.87 | 7.31 | 5.93 | 7.62 | 1.28 | 0.211 | 0.353 | 1.67 | 36 | 
16 | CC[C@H](C)[C@H](NC(=O)[C@H]([C@@H](C)CC)N(C)C(C)=O)C(=O)N[C@H](C(=O)N[C@@H](CC(C)C)C(=O)[C@@]1(C)CO1)[C@@H](C)O [EPOXOMYCIN] |  |  |  |  |  |  |  |  |  |  | IC50 [26]: 0.0167 µM
